In ChEMBL document CHEMBL1240307, “A functional genomics approach to the mode of action of apratoxin A” (Nat Chem Biol, 2006):

Legend:
Assay type in all cases: functional
A549 = assay: Cytotoxicity against human A549 cells by sulforhodamine B assay
HCC 2998 = assay: Cytotoxicity against human HCC2998 cells by sulforhodamine B assay
HT-29 [1] = assay: Antitumor activity against human HT-29 cells assessed as down-regulation of RAB11B mRNA expression at 2 nM after 6 hrs relative to control
U-251 = assay: Cytotoxicity against human U251 cells by sulforhodamine B assay
OVCAR-4 = assay: Cytotoxicity against human OVCAR4 cells by sulforhodamine B assay
U2OS [2] = assay: Cell cycle arrest in human U2OS cells overexpressing mouse Fgfr1 assessed as accumulation at G1 phase at 15 nM after 48 hrs by CMV-GFP reporter assay method (reference value: 58%)
U2OS [3] = assay: Cell cycle arrest in human U2OS cells assessed as accumulation at G1 phase at 50 nM after 24 hrs by FACS analysis (reference value: 49.8%)
HT-29 [4] = assay: Antitumor activity against human HT-29 cells assessed as upregulation of DDIT4 mRNA expression at 10 nM after 6 hrs relative to control
HT-29 [5] = assay: Antitumor activity against human HT-29 cells assessed as down-regulation of CDC25A mRNA expression at 2 nM after 12 hrs relative to control
HT-29 [6] = assay: Antitumor activity against human HT-29 cells assessed as down-regulation of RAB11B mRNA expression at 10 nM after 3 hrs relative to control
U2OS [7] = assay: Cell cycle arrest in human U2OS cells assessed as accumulation at G1 phase at 5 nM after 24 hrs by FACS analysis (reference value: 49.8%)
HCT-15 = assay: Cytotoxicity against human HCT15 cells by sulforhodamine B assay
HT-29 [8] = assay: Antitumor activity against human HT-29 cells assessed as upregulation of MGC4504 mRNA expression at 10 nM after 3 hrs relative to control
HOP-92 = assay: Cytotoxicity against human HOP92 cells by sulforhodamine B assay
COLO 205 = assay: Cytotoxicity against human COLO205 cells by sulforhodamine B assay
M14 = assay: Cytotoxicity against human M14 cells by sulforhodamine B assay
786-0 = assay: Cytotoxicity against human 786-0 cells by sulforhodamine B assay
U2OS [9] = assay: Cell cycle arrest in human U2OS cells assessed as accumulation at G1 phase at 50 nM after 48 hrs by FACS analysis (reference value: 49.8%)
HT-29 [10] = assay: Antitumor activity against human HT-29 cells assessed as upregulation of DDIT4 mRNA expression at 10 nM after 12 hrs relative to control
RXF 393 = assay: Cytotoxicity against human RXF393 cells by sulforhodamine B assay
EKVX = assay: Cytotoxicity against human EKVX cells by sulforhodamine B assay
HT-29 [11] = assay: Antitumor activity against human HT-29 cells assessed as upregulation of RASSF4 mRNA expression at 2 nM after 12 hrs relative to control
HT-29 [12] = assay: Antitumor activity against human HT-29 cells assessed as upregulation of DDIT4 mRNA expression at 10 nM after 3 hrs relative to control
SK-MEL-2 = assay: Cytotoxicity against human SK-MEL-2 cells by sulforhodamine B assay
OVCAR-5 = assay: Cytotoxicity against human OVCAR5 cells by sulforhodamine B assay
HT-29 [13] = assay: Antitumor activity against human HT-29 cells assessed as down-regulation of TAL1 mRNA expression at 2 nM after 12 hrs relative to control
HT-29 [14] = assay: Antitumor activity against human HT-29 cells assessed as down-regulation of CDC25A mRNA expression at 2 nM after 3 hrs relative to control
HT-29 [15] = assay: Antitumor activity against human HT-29 cells assessed as upregulation of RASSF4 mRNA expression at 10 nM after 3 hrs relative to control
MCF7 = assay: Cytotoxicity against human MCF7 cells by sulforhodamine B assay
HT-29 [16] = assay: Cytotoxicity against human HT-29 cells by sulforhodamine B assay
HT-29 [17] = assay: Antitumor activity against human HT-29 cells assessed as upregulation of DDIT4 mRNA expression at 2 nM after 6 hrs relative to control
MDA-MB-231 = assay: Cytotoxicity against human MDA-MB-231 cells by sulforhodamine B assay
HT-29 [18] = assay: Antitumor activity against human HT-29 cells assessed as down-regulation of TAL1 mRNA expression at 10 nM after 3 hrs relative to control
U2OS [19] = assay: Cell cycle arrest in human U2OS cells assessed as accumulation at S phase at 50 nM after 24 hrs by FACS analysis (reference value: 37.3%)
U2OS [20] = assay: Cell cycle arrest in human U2OS cells assessed as accumulation at sub-G1 phase at 50 nM after 48 hrs by FACS analysis relative to control
HT-29 [21] = assay: Antitumor activity against human HT-29 cells assessed as down-regulation of CCNE2 mRNA expression at 10 nM after 12 hrs relative to control
HL-60(TB) = assay: Cytotoxicity against human HL-60(TB) cells by sulforhodamine B assay
HT-29 [22] = assay: Antitumor activity against human HT-29 cells assessed as down-regulation of TAL1 mRNA expression at 2 nM after 3 hrs relative to control
U2OS [23] = assay: Cell cycle arrest in human U2OS cells assessed as accumulation at S phase at 5 nM after 24 hrs by FACS analysis (reference value: 37.3%)
HCT-116 = assay: Cytotoxicity against human HCT116 cells by sulforhodamine B assay
HT-29 [24] = assay: Antitumor activity against human HT-29 cells assessed as upregulation of MGC4504 mRNA expression at 2 nM after 3 hrs relative to control
HT-29 [25] = assay: Antitumor activity against human HT-29 cells assessed as upregulation of RASSF4 mRNA expression at 2 nM after 6 hrs relative to control
HT-29 [26] = assay: Antitumor activity against human HT-29 cells assessed as upregulation of RASSF4 mRNA expression at 10 nM after 6 hrs relative to control
HT-29 [27] = assay: Antitumor activity against human HT-29 cells assessed as upregulation of MGC4504 mRNA expression at 2 nM after 6 hrs relative to control
HT-29 [28] = assay: Antitumor activity against human HT-29 cells assessed as upregulation of KCNK10 mRNA expression at 10 nM after 6 hrs relative to control
NCI-H460 = assay: Cytotoxicity against human NCI-H460 cells by sulforhodamine B assay
SR = assay: Cytotoxicity against human SR cells by sulforhodamine B assay
HT-29 [29] = assay: Antitumor activity against human HT-29 cells assessed as upregulation of MGC4504 mRNA expression at 10 nM after 12 hrs relative to control
HT-29 [30] = assay: Antitumor activity against human HT-29 cells assessed as upregulation of RASSF4 mRNA expression at 2 nM after 3 hrs relative to control
[31] = read-out: LC50 (the source's name)

SMILES: CC[C@H](C)[C@H]1C(=O)N2CCC[C@H]2C(=O)O[C@H](C(C)(C)C)C[C@@H](C)C[C@H](O)[C@H](C)C2=N[C@@H](/C=C(\C)C(=O)N[C@@H](Cc3ccc(OC)cc3)C(=O)N(C)[C@@H](C)C(=O)N1C)CS2 [APRATOXIN A]
- GI50 (A549): 5.38 nM
- GI50 (HCC 2998): 3.65 nM
- fold change (FC) (HT-29 [1]): <=2
- GI50 (U-251): 1.56 nM
- GI50 (OVCAR-4): > 100 nM
- inhibition at 0.015 µM (U2OS [2]): 58%
- inhibition at 0.05 µM (U2OS [3]): 68.3%
- fold change (FC) (HT-29 [4]): 16.18
- fold change (FC) (HT-29 [5]): -2.2
- fold change (FC) (HT-29 [6]): <=2
- inhibition at 0.005 µM (U2OS [7]): 61.6%
- GI50 (HCT-15): 4.29 nM
- fold change (FC) (HT-29 [8]): <=2
- GI50 (HOP-92): 3.09 nM
- GI50 (COLO 205): 2.71 nM
- GI50 (M14): 2.09 nM
- GI50 (786-0): 4.52 nM
- inhibition at 0.05 µM (U2OS [9]): 50.2%
- fold change (FC) (HT-29 [10]): 6.82
- GI50 (RXF 393): 7.12 nM
- GI50 (EKVX): 7.56 nM
- fold change (FC) (HT-29 [11]): <=2
- fold change (FC) (HT-29 [12]): 4.09
- GI50 (SK-MEL-2): > 100 nM
- GI50 (OVCAR-5): > 100 nM
- fold change (FC) (HT-29 [13]): <=2
- fold change (FC) (HT-29 [14]): <=2
- fold change (FC) (HT-29 [15]): <=2
- GI50 (MCF7): 6.57 nM
- GI50 (HT-29 [16]): 1.04 nM
- CC50 (HT-29 [16]; [31]): 75.2 nM
- fold change (FC) (HT-29 [17]): 10.37
- GI50 (MDA-MB-231): 1.46 nM
- fold change (FC) (HT-29 [18]): <=2
- inhibition at 0.05 µM (U2OS [19]): 22.6%
- inhibition at 0.05 µM (U2OS [20]): 42.7%
- fold change (FC) (HT-29 [21]): -2.17
- GI50 (HL-60(TB)): 0.851 nM
- fold change (FC) (HT-29 [22]): -2.52
- inhibition at 0.005 µM (U2OS [23]): 28.2%
- GI50 (HCT-116): 0.916 nM
- fold change (FC) (HT-29 [24]): <=2
- fold change (FC) (HT-29 [25]): <=2
- fold change (FC) (HT-29 [26]): <=2
- fold change (FC) (HT-29 [27]): 7.57
- fold change (FC) (HT-29 [28]): 7.38
- GI50 (NCI-H460): 2.77 nM
- GI50 (SR): 1.5 nM
- CC50 (SR; [31]): 27.4 nM
- fold change (FC) (HT-29 [29]): 12.09
- fold change (FC) (HT-29 [30]): 12.65
